Assay results from PubChem BioAssay AID248 (DTP/NCI, 2004).
“And” between values parts separate entries of the source, which are not always exact repeats. Equal values may be shown once. Inconclusive results and toxic doses are left out. Cut-off read from the data, not from the text of the source: active = T/C of 150% or more; inactive = T/C below 125%.

System: L1210 leukemia ip in BDF1 mice, survival T/C
Assay: NCI In Vivo Anticancer Drug Screen. Data for tumor model L1210 Leukemia (intraperitoneal) in B6D2F1 (BDF1) mice
Details: endpoint: mean survival time, higher = longer survival
In short: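 Tumor cells were implanted, animals were treated, and survival was followed. The result divides the treated measurement by the vehicle-control measurement.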

[1] = dose: 100.0 mg/kg/injection, schedule: Q01DX009 (ip), vehicle: saline with Tween-80
[2] = dose: 100.0 mg/kg/injection, schedule: Q04DX003 (ip), vehicle: saline with Tween-80
[3] = dose: 200.0 mg/kg/injection, schedule: Q04DX003 (ip), vehicle: saline with Tween-80
[4] = dose: 400.0 mg/kg/injection, schedule: Q04DX003 (ip), vehicle: saline with Tween-80
[5] = dose: 100.0 mg/kg/injection, schedule: Q04DX003 (ip), vehicle: Klucel (hydroxypropylcellulose) (HPC)
[6] = dose: 200.0 mg/kg/injection, schedule: Q04DX003 (ip), vehicle: Klucel (hydroxypropylcellulose) (HPC)
[7] = dose: 100.0 mg/kg/injection, schedule: Q01DX001 (ip), vehicle: other
[8] = dose: 200.0 mg/kg/injection, schedule: Q01DX001 (ip), vehicle: other
[9] = dose: 100.0 mg/kg/injection, schedule: Q04DX002 (ip), vehicle: saline with Tween-80
[10] = dose: 200.0 mg/kg/injection, schedule: Q04DX002 (ip), vehicle: saline with Tween-80
[11] = dose: 75.0 mg/kg/injection, schedule: Q01DX001 (ip), vehicle: saline
[12] = dose: 150.0 mg/kg/injection, schedule: Q01DX001 (ip), vehicle: saline
[13] = dose: 300.0 mg/kg/injection, schedule: Q01DX001 (ip), vehicle: saline

Measured: T/C

CCOC(=O)c1cnn(C(N)=S)c1N
inactive: dose: 50.0 mg/kg/injection, schedule: Q01DX009 (ip), vehicle: saline with Tween-80 95 % of control | [1] 98 % of control | [2] 102 % of control | [3] 105 % of control | [4] 96 % of control

O=C1C2CCN(CC2)C1CN1CCC(O)(c2ccc(Cl)cc2)CC1 (configuration not stated)
inactive: [5] 104 % of control | [6] 101 % of control

COc1ccc2[nH]c3c(C)cc(C=O)c(C)c3c2c1
inactive: [7] 101 % of control | [2] 102 % of control | [8] 95 % of control | [3] 101 % of control | dose: 400.0 mg/kg/injection, schedule: Q01DX001 (ip), vehicle: other 91 % of control | [4] 96 % of control

COC(=N)c1ccc(O)cc1
inactive: [9] 94 % of control | [10] 98 % of control

CCCNC(=O)C1C2CCC(C2)C1C(=O)NCCC (configuration not stated)
inactive: [2] 96 % of control | [3] 96 % of control | [4] 96 % of control

Clc1c(Cl)c(Cl)c(C(c2c(Cl)c(Cl)c(Cl)c(Cl)c2Cl)c2c(Cl)c(Cl)c(Cl)c(Cl)c2Cl)c(Cl)c1Cl
inactive: [1] 97 % of control | dose: 200.0 mg/kg/injection, schedule: Q01DX009 (ip), vehicle: saline with Tween-80 93 % of control | dose: 400.0 mg/kg/injection, schedule: Q01DX009 (ip), vehicle: saline with Tween-80 89 % of control

C[n+]1cccc(C=O)c1
inactive: dose: 100.0 mg/kg/injection, schedule: Q01DX009 (ip), vehicle: saline 100 % of control | dose: 200.0 mg/kg/injection, schedule: Q01DX009 (ip), vehicle: saline 101 % of control | dose: 400.0 mg/kg/injection, schedule: Q01DX009 (ip), vehicle: saline 100 % of control

CC(C)(O)C(O)CC1=C(O)c2ccccc2C(=O)C1=O (configuration not stated)
inactive: dose: 100.0 mg/kg/injection, schedule: Q01DX001 (ip), vehicle: water 106 % of control | dose: 200.0 mg/kg/injection, schedule: Q01DX001 (ip), vehicle: water 97 % of control | dose: 400.0 mg/kg/injection, schedule: Q01DX001 (ip), vehicle: water 93 % of control

CC(=O)OCC1=C(COC(C)=O)C2OC1C1OC(=O)OC21 (configuration not stated)
inactive: dose: 75.0 mg/kg/injection, schedule: Q01DX009 (ip), vehicle: Klucel (hydroxypropylcellulose) (HPC) 97 % of control | dose: 100.0 mg/kg/injection, schedule: Q01DX009 (ip), vehicle: Klucel (hydroxypropylcellulose) (HPC) 105 % of control | dose: 150.0 mg/kg/injection, schedule: Q01DX009 (ip), vehicle: Klucel (hydroxypropylcellulose) (HPC) 92 % of control | dose: 200.0 mg/kg/injection, schedule: Q01DX009 (ip), vehicle: Klucel (hydroxypropylcellulose) (HPC) 97 % of control | dose: 300.0 mg/kg/injection, schedule: Q01DX009 (ip), vehicle: Klucel (hydroxypropylcellulose) (HPC) 104 % of control | dose: 400.0 mg/kg/injection, schedule: Q01DX009 (ip), vehicle: Klucel (hydroxypropylcellulose) (HPC) 101 % of control

CCOc1ccc(CC(=O)Nc2cc([N+](=O)[O-])ccc2NCCN(CC)CC)cc1
inactive: dose: 25.0 mg/kg/injection, schedule: Q04DX003 (ip), vehicle: other 97 % of control | dose: 50.0 mg/kg/injection, schedule: Q04DX003 (ip), vehicle: other 97 % of control | dose: 100.0 mg/kg/injection, schedule: Q04DX003 (ip), vehicle: other 95 % of control and 111 % of control

Nc1cc(F)c2c(c1)C(=O)c1cc(F)ccc1-2
inactive: dose: 50.0 mg/kg/injection, schedule: Q01DX001 (ip), vehicle: carboxymethylcellulose (CMC) 93 % of control | dose: 50.0 mg/kg/injection, schedule: Q04DX003 (ip), vehicle: Klucel (hydroxypropylcellulose) (HPC) 96 % of control | dose: 100.0 mg/kg/injection, schedule: Q01DX001 (ip), vehicle: carboxymethylcellulose (CMC) 95 % of control | [5] 96 % of control | dose: 200.0 mg/kg/injection, schedule: Q01DX001 (ip), vehicle: carboxymethylcellulose (CMC) 95 % of control | [6] 98 % of control | dose: 400.0 mg/kg/injection, schedule: Q01DX001 (ip), vehicle: carboxymethylcellulose (CMC) 95 % of control

c1ccc(P(=NC2CCCCC2)(c2ccccc2)c2ccccc2)cc1
inactive: dose: 50.0 mg/kg/injection, schedule: Q04DX003 (ip), vehicle: acetone 96 % of control | dose: 100.0 mg/kg/injection, schedule: Q04DX003 (ip), vehicle: acetone 94 % of control

COC(=O)CN(c1c(C)cc(C)c(NS(=O)(=O)c2ccccc2)c1C)S(=O)(=O)c1ccccc1
inactive: dose: 100.0 mg/kg/injection, schedule: Q01DX001 (ip), vehicle: Klucel (hydroxypropylcellulose) (HPC) 92 % of control | dose: 200.0 mg/kg/injection, schedule: Q01DX001 (ip), vehicle: Klucel (hydroxypropylcellulose) (HPC) 96 % of control | dose: 400.0 mg/kg/injection, schedule: Q01DX001 (ip), vehicle: Klucel (hydroxypropylcellulose) (HPC) 97 % of control

O=C1CCN/C(=N\[N+](=O)[O-])N1
inactive: dose: 100.0 mg/kg/injection, schedule: Q01DX001 (ip), vehicle: saline with Tween-80 101 % of control | dose: 200.0 mg/kg/injection, schedule: Q01DX001 (ip), vehicle: saline with Tween-80 106 % of control

CN(C)/N=N/c1nc[nH]c1C(=O)NCCc1ccccc1
inactive: [7] 108 % of control | [8] 108 % of control

CC(=O)Nc1ccc(S(=O)(=O)Cl)cc1Cl
inactive: [11] 96 % of control | [12] 98 % of control | [13] 99 % of control

Br/C=C/c1ccccc1
inactive: [9] 94 % of control | [10] 97 % of control | dose: 400.0 mg/kg/injection, schedule: Q04DX002 (ip), vehicle: saline with Tween-80 100 % of control

CC(=O)OC(OC(C)=O)c1ccccn1
inactive: [11] 94 % of control | [12] 96 % of control | [13] 93 % of control

CCCc1cc(C)cc(N=Cc2ccccc2)c1O
inactive: [2] 101 % of control | [3] 97 % of control | [4] 98 % of control

O=C1C(Br)(Br)CCCCC1(c1ccccc1)c1ccccc1
inactive: [2] 101 % of control | [3] 103 % of control | [4] 87 % of control
